Read-outs that look alike come from different tables or passages of the source.
Assays:
Experiment in all cases: greenhouse post-emergence herbicidal test
GERPU = type: in vivo, Geranium pusillum; conditions: application rate a.i.: I.1 31.25 g/ha
Protocol: The culture containers used were plastic pots containing medium loamy sand with approximately 4.6% of humus and 69.9% sand as substrate. The seeds of the test plants were sown separately for each species.
For the post-emergence treatment, the test plants were grown to a plant height of from 1 to 15 cm, depending on the plant habit, and only then treated with the active compounds which had been suspended or emulsified in water. To this end, the test plants were either sown directly, and grown in the same containers, or they were first grown separately as seedlings and transplanted into the test containers a few days prior to treatment.
Depending on the species, the plants were kept at 10-25° C. and 20-35° C., respectively.
The test period extended over 1 to 3 weeks. During this time, the plants were tended and their response to the individual treatments was evaluated 20 days after treatment except mentioned otherwise.
Evaluation was carried out using a scale from 0 to 100. 100 means no emergence of the plants, or complete destruction of at least the above-ground parts, and 0 means no damage or normal course of growth.
The respective stated components A and B, and, if appropriate, C, were formulated as a 10% by weight strength emulsion concentrate and, with addition of the amount of solvent system, introduced into the spray liquor used for applying the active compound. In the examples, the solvent used was water.
In the examples below, using the method of S. R. Colby (1967) “Calculating synergistic and antagonistic responses of herbicide combinations”, Weeds 15, p. 22 ff., the value E, which is expected if the activity of the individual active compounds is only additive, was calculated. E=X+Y−(X·Y/100)

MATCH = type: in vivo, Matricaria recutita; set-up: key to herbicidal activity against MATCH found: rating on a scale from 0 to 100; conditions: post emergence
Outline: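 Test plants, sown directly or transplanted a few days earlier, are treated at 1–15 cm height with emulsified or suspended actives in water. Temperatures run 10-25° C or 20-35° C by species; injury is scored 0–100 twenty days after spraying.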

POLAV = type: in vivo, Polygonum aviculare; set-up: key: rating on a scale from 0 to 100
Outline: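 Post-emergence greenhouse test: plants in loamy sand, sprayed at 1–15 cm height with aqueous spray liquor from 10% emulsion concentrates, kept at 10-25 °C or 20-35 °C by species. Damage scored 0–100 (100 = complete destruction), usually 20 days after treatment. Expected additive effect E from Colby: E=X+Y−(X·Y/100).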

[1] = 6 days after treatment, g/ha a.i.: I.1 31.25, naptalam 50, mixture 31.25+50
[2] = 6 days after treatment, g/ha a.i.: I.1 62.5, naptalam 50, mixture 62.5+50

Structure (SMILES): O=C(O)c1cc(C2CC2)nc2onc(C3CC3)c12 [I.1]
- herbicidal activity against GERPU, found (GERPU; B.139 (pyroxasulfone) 12.5 g/ha, alone or as mixture (composition 1.139)): 80
- herbicidal activity against GERPU, found (GERPU; B.139 (pyroxasulfone) 25 g/ha, alone or as mixture (composition 1.139)): 80
- herbicidal activity against GERPU, found (GERPU; B.87 (carfentrazone-ethyl) 1.75 g/ha, alone or as mixture (composition 1.87)): 80
- pest or weed control at 31.25 g/ha (MATCH; Matricaria chamomilla, post-emergence, 480 h, I.1 alone 31.25 g/ha a.i., read-out: herbicidal activity against MATCH found): 0%
- pest or weed control at 125 g/ha (MATCH; Matricaria chamomilla, post-emergence, 480 h, I.1 alone 125 g/ha a.i., read-out: herbicidal activity against MATCH found): 0%
- pest or weed control at 62.5 g/ha (MATCH; Matricaria chamomilla, post-emergence, 480 h, 62.5 g/ha a.i., read-out: herbicidal activity against MATCH found): 50%
- pest or weed control at 31.25 g/ha (MATCH; Matricaria chamomilla, post-emergence, 480 h, I.1 31.25 g/ha a.i., read-out: herbicidal activity against MATCH found): 20%
- pest or weed control at 62.5 g/ha (MATCH; Matricaria chamomilla, post-emergence, 480 h, I.1 62.5 g/ha a.i., read-out: herbicidal activity against MATCH found): 30%
- pest or weed control at 31.25 g/ha (MATCH; Matricaria chamomilla, post-emergence, 480 h, single active, 31.25 g/ha a.i., read-out: herbicidal activity against MATCH found): 15%
- pest or weed control at 62.5 g/ha (MATCH; Matricaria chamomilla, post-emergence, 480 h, single active, 62.5 g/ha a.i., read-out: herbicidal activity against MATCH found): 60%
- herbicidal activity against MATCH found (MATCH; [1]): 0
- herbicidal activity against MATCH found (MATCH; 6 days after treatment, g/ha a.i.: I.1 31.25, naptalam 100, mixture 31.25+100): 0
- herbicidal activity against MATCH found (MATCH; [2]): 10
- herbicidal activity against MATCH found (MATCH; I.1 15.62 g/ha, B.95 1 g/ha a.i.): 10
- herbicidal activity against MATCH found (MATCH; I.1 31.25 g/ha, B.95 1 g/ha a.i.): 10
- herbicidal activity against MATCH found (MATCH; I.1 31.25 g/ha, B.95 2 g/ha a.i.): 10
- herbicidal activity against MATCH found (MATCH; I.1 62.5 g/ha, B.167 62.5 g/ha a.i.): 0
- herbicidal activity against MATCH found (MATCH; I.1 62.5 g/ha, B.167 125 g/ha a.i.): 0
- herbicidal activity against MATCH found (MATCH; I.1 62.5 g/ha, B.95 2 g/ha a.i.): 65
- herbicidal activity against MATCH found (MATCH; a.i. g/ha: I.1 20.8, B.192 62.5, 20 days after treatment): 60%
- herbicidal activity against MATCH found (MATCH; a.i. g/ha: I.1 20.8, B.79 25, 20 days after treatment): 60%
- herbicidal activity against MATCH found (MATCH; a.i. g/ha: I.1 31.25, B.67 125, 20 days after treatment): 30%
- herbicidal activity against MATCH found (MATCH; a.i. g/ha: I.1 31.25, B.67 125, 20 days after treatment, sub-table r36-r43): 30%
- herbicidal activity against MATCH found (MATCH; a.i. g/ha: I.1 31.25, B.69 25, 20 days after treatment): 30%
- herbicidal activity against MATCH found (MATCH; a.i. g/ha: I.1 62.5, B.191 225, 20 days after treatment): 30%
- herbicidal activity against MATCH found (MATCH; a.i. g/ha: I.1 62.5, B.67 125, 20 days after treatment): 0%
- herbicidal activity against MATCH found (MATCH; application rate a.i.: I.1 20.8 g/ha, B.107 (topramezone) 6 g/ha, alone or as mixture (composition 1.107)): 60
- herbicidal activity against MATCH found (MATCH; application rate a.i.: I.1 31.25 g/ha, B.87 (carfentrazone-ethyl) 1.75 g/ha, alone or as mixture (composition 1.87)): 35
- herbicidal activity against MATCH found (MATCH; application rate a.i.: I.1 62.5 g/ha, B.84 (paraquat-dichloride) 17.5 g/ha, alone or as mixture (composition 1.84)): 80
- herbicidal activity against MATCH found (MATCH; application rate a.i.: I.1 62.5 g/ha, B.87 (carfentrazone-ethyl) 1.75 g/ha, alone or as mixture (composition 1.87)): 80
- herbicidal activity against MATCH found (MATCH; applied alone at 31.25 g/ha a.i.): 25
- herbicidal activity against MATCH found (MATCH; g/ha a.i.: I.1 31.25, B.24 2, mixture 31.25+2): 25
- herbicidal activity against MATCH found (MATCH; g/ha a.i.: I.1 125, B.24 2, mixture 125+2): 75
- herbicidal activity against MATCH found (MATCH; g/ha a.i.: I.1 125, B.63 0.5, mixture 125+0.5): 75
- herbicidal activity against POLAV found (POLAV; 62.5 g/ha a.i.): 65
- herbicidal activity against POLAV found (POLAV; 125 g/ha a.i.): 65
- herbicidal activity against POLAV found (POLAV; [1]): 70
- herbicidal activity against POLAV found (POLAV; 6 days after treatment, g/ha a.i.: I.1 31.25, naptalam 200, mixture 31.25+200): 70
- herbicidal activity against POLAV found (POLAV; 6 days after treatment, g/ha a.i.: I.1 62.5, B.96 70, mixture 62.5+70): 70
- herbicidal activity against POLAV found (POLAV; 6 days after treatment, g/ha a.i.: I.1 62.5, B.96 140, mixture 62.5+140): 70
- herbicidal activity against POLAV found (POLAV; [2]): 70
- herbicidal activity against POLAV found (POLAV; 6 days after treatment, g/ha a.i.: I.1 62.5, naptalam 100, mixture 62.5+100): 70
- herbicidal activity against POLAV found (POLAV; 6 days after treatment, g/ha a.i.: I.1 62.5, naptalam 200, mixture 62.5+200): 70
- herbicidal activity against POLAV found (POLAV; a.i. g/ha: I.1 15.6, B.190 62.5, 20 days after treatment): 45%
